Assays:
S. aureus DSM2569 = experiment: MIC, standard microdilution assay, growing S. aureus; type: cell-based, Staphylococcus aureus; settings: S. aureus; CA-MHB pH 7.4; read-out: MIC (μM) CA-MHB
Procedure, shortened: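 Broth microdilution was used throughout. UPEC, P. aeruginosa and S. aureus were tested in CA-MHB buffered with 40 mM HEPES (pH 7.4); UPEC was additionally tested in LPM with 30 mM MES (pH 5.5). S. flexneri was grown in TSB. All determinations were run in triplicate.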

[1] = system: non-growing P. aeruginosa DSM1117; experiment: Dose-dependent killing analysis (CFU spot-plating) of stationary-phase P. aeruginosa; type: cell-based, Pseudomonas aeruginosa; settings: P. aeruginosa
Method: The cultures were grown and treated for 24 h in 1:4 CA-MHB (pH 7.4).
For survival analysis, bacteria were cultivated as described for the dose–response dilution-regrowth assay. Assays with UPEC were conducted at the CBCS screening facility using 96-well plates with a 200 μl sample volume, and compounds were dispensed using the Echo® (Labcyte) system. P. aeruginosa and S. aureus samples were treated according to the protocol used for the dilution-regrowth experiments. Treated samples were serially diluted 10-fold in PBS, and 10 μl drops were spot-plated onto rectangular LB agar plates using either a Beckman NXP robot (for UPEC) or an Integra VIAFLO96 electronic pipette (for P. aeruginosa and S. aureus). The LB agar plates were incubated overnight at 37 °C and scanned. Colonies were counted at the spots of the lowest dilution where individual colonies could be accurately distinguished. Each colony was manually marked on a separate image layer using the GNU Image Manipulation Program, and counted using NIST’s Integrated Colony Enumerator (NICE 1.4) software. The experiments were performed in three biological replicates.

non-growing UPEC CFT073 [2] = experiment: Dilution-regrowth assay (screen, hit validation, dose-response) on stationary-phase UPEC; type: cell-based, Escherichia coli
Procedure, shortened: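 Regrowth (OD600 after 6 h, 37 °C) of diluted non-growing CFT073, following 24 h compound treatment of 24 h stationary cultures, defines activity relative to untreated control. Screen at 20 µM, validation at 20, 10, 5 µM (duplicates), dose–response in three biological replicates fitted by five-parameter logistic.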

non-growing UPEC CFT073 [3] = experiment: Dose-dependent killing analysis (CFU spot-plating) of stationary-phase UPEC; type: cell-based, Escherichia coli; settings: E. coli in LPM (pH 5.5)
Procedure, shortened: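 Killing assessed by CFU counts: overnight 37 °C LB agar spot plates (10 μl drops of 10-fold PBS dilutions) scored at the lowest dilution with distinct colonies. Samples were compound-treated non-growing UPEC CFT073, 200 μl per well. Performed as three biological replicates.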

Structure (SMILES): CC(=O)[O][Pt]([NH2])([Cl])([Cl])([NH]C1CCCCC1)[O]C(C)=O [Satraplatin]
- MIC (S. aureus DSM2569): 80 µM
- killing, average Δlog10(CFU/ml) ([1]; drug concentration 0.1): -0.012 log10(CFU/ml)
- log10(CFU/ml) after treatment, replicate 1 ([1]; drug concentration 0.1): 8.699 log10(CFU/ml)
- log10(CFU/ml) after treatment, replicate 2 ([1]; drug concentration 0.1): 9.301 log10(CFU/ml)
- log10(CFU/ml) after treatment, replicate 3 ([1]; drug concentration 0.1): 8.699 log10(CFU/ml)
- killing, average Δlog10(CFU/ml) ([1]; drug concentration 0.5): 0.420 log10(CFU/ml)
- log10(CFU/ml) after treatment, replicate 1 ([1]; drug concentration 0.5): 8.477 log10(CFU/ml)
- log10(CFU/ml) after treatment, replicate 2 ([1]; drug concentration 0.5): 8.845 log10(CFU/ml)
- log10(CFU/ml) after treatment, replicate 3 ([1]; drug concentration 0.5): 8.079 log10(CFU/ml)
- killing, average Δlog10(CFU/ml) ([1]; drug concentration 2.5): 1.880 log10(CFU/ml)
- log10(CFU/ml) after treatment, replicate 1 ([1]; drug concentration 2.5): 7.845 log10(CFU/ml)
- log10(CFU/ml) after treatment, replicate 2 ([1]; drug concentration 2.5): 8.477 log10(CFU/ml)
- log10(CFU/ml) after treatment, replicate 3 ([1]; drug concentration 2.5): 4.699 log10(CFU/ml)
- killing, average Δlog10(CFU/ml) ([1]; drug concentration 10): 3.310 log10(CFU/ml)
- log10(CFU/ml) after treatment, replicate 1 ([1]; drug concentration 10): 5.000 log10(CFU/ml)
- log10(CFU/ml) after treatment, replicate 2 ([1]; drug concentration 10): 6.778 log10(CFU/ml)
- log10(CFU/ml) after treatment, replicate 3 ([1]; drug concentration 10): 4.954 log10(CFU/ml)
- Regrowth, OD600 at 6h or 8h after dilution into drug-free medium (average) (non-growing UPEC CFT073 [2]; E. coli in 1:4 CA-MHB (pH 7.4), drug concentration 0.25): 0.615
- Regrowth, OD600 at 6h or 8h after dilution into drug-free medium (average) (non-growing UPEC CFT073 [2]; E. coli in 1:4 CA-MHB (pH 7.4), drug concentration 0.5): 0.612
- Regrowth, OD600 at 6h or 8h after dilution into drug-free medium (average) (non-growing UPEC CFT073 [2]; E. coli in 1:4 CA-MHB (pH 7.4), drug concentration 1): 0.620
- Regrowth, OD600 at 6h or 8h after dilution into drug-free medium (average) (non-growing UPEC CFT073 [2]; E. coli in 1:4 CA-MHB (pH 7.4), drug concentration 2.5): 0.601
- Regrowth, OD600 at 6h or 8h after dilution into drug-free medium (average) (non-growing UPEC CFT073 [2]; E. coli in 1:4 CA-MHB (pH 7.4), drug concentration 5): 0.592
- Regrowth, OD600 at 6h or 8h after dilution into drug-free medium (average) (non-growing UPEC CFT073 [2]; E. coli in 1:4 CA-MHB (pH 7.4), drug concentration 10): 0.597
- Regrowth, OD600 at 6h or 8h after dilution into drug-free medium (average) (non-growing UPEC CFT073 [2]; E. coli in 1:4 CA-MHB (pH 7.4), drug concentration 30): 0.570
- Regrowth, OD600 at 6h or 8h after dilution into drug-free medium (average) (non-growing UPEC CFT073 [2]; E. coli in LPM (pH 5.5), drug concentration 0.25): 0.566
- Regrowth, OD600 at 6h or 8h after dilution into drug-free medium (average) (non-growing UPEC CFT073 [2]; E. coli in LPM (pH 5.5), drug concentration 0.5): 0.557
- Regrowth, OD600 at 6h or 8h after dilution into drug-free medium (average) (non-growing UPEC CFT073 [2]; E. coli in LPM (pH 5.5), drug concentration 1): 0.558
- Regrowth, OD600 at 6h or 8h after dilution into drug-free medium (average) (non-growing UPEC CFT073 [2]; E. coli in LPM (pH 5.5), drug concentration 2.5): 0.474
- Regrowth, OD600 at 6h or 8h after dilution into drug-free medium (average) (non-growing UPEC CFT073 [2]; E. coli in LPM (pH 5.5), drug concentration 5): 0.354
- Regrowth, OD600 at 6h or 8h after dilution into drug-free medium (average) (non-growing UPEC CFT073 [2]; E. coli in LPM (pH 5.5), drug concentration 10): 0.251
- Regrowth, OD600 at 6h or 8h after dilution into drug-free medium (average) (non-growing UPEC CFT073 [2]; E. coli in LPM (pH 5.5), drug concentration 30): 0.087
- EC50 (non-growing UPEC CFT073 [2]; E. coli, LPM pH 5.5, regrowth delay of non-growing bacteria, 24 h treatment, OD600 6 h after 2500-fold dilution, read-out: EC50): 7.62 µM
- activity against non-growing UPEC in LPM (pH 5.5) compared to 1:4 CA-MHB (pH 7.4) (non-growing UPEC CFT073 [2]; regrowth delay and killing, Figs. 2 and 3): potentiated by the low pH
- killing, average Δlog10(CFU/ml) (non-growing UPEC CFT073 [3]; drug concentration 0.25): 0.465 log10(CFU/ml)
- log10(CFU/ml) after treatment, replicate 1 (non-growing UPEC CFT073 [3]; drug concentration 0.25): 6.778 log10(CFU/ml)
- log10(CFU/ml) after treatment, replicate 2 (non-growing UPEC CFT073 [3]; drug concentration 0.25): 6.431 log10(CFU/ml)
- log10(CFU/ml) after treatment, replicate 3 (non-growing UPEC CFT073 [3]; drug concentration 0.25): 7.447 log10(CFU/ml)
- killing, average Δlog10(CFU/ml) (non-growing UPEC CFT073 [3]; drug concentration 0.5): 0.567 log10(CFU/ml)
- log10(CFU/ml) after treatment, replicate 1 (non-growing UPEC CFT073 [3]; drug concentration 0.5): 7.041 log10(CFU/ml)
- log10(CFU/ml) after treatment, replicate 2 (non-growing UPEC CFT073 [3]; drug concentration 0.5): 6.079 log10(CFU/ml)
- log10(CFU/ml) after treatment, replicate 3 (non-growing UPEC CFT073 [3]; drug concentration 0.5): 7.230 log10(CFU/ml)
- killing, average Δlog10(CFU/ml) (non-growing UPEC CFT073 [3]; drug concentration 1): 0.828 log10(CFU/ml)
- log10(CFU/ml) after treatment, replicate 1 (non-growing UPEC CFT073 [3]; drug concentration 1): 6.778 log10(CFU/ml)
- log10(CFU/ml) after treatment, replicate 2 (non-growing UPEC CFT073 [3]; drug concentration 1): 6.176 log10(CFU/ml)
- log10(CFU/ml) after treatment, replicate 3 (non-growing UPEC CFT073 [3]; drug concentration 1): 6.613 log10(CFU/ml)
- killing, average Δlog10(CFU/ml) (non-growing UPEC CFT073 [3]; drug concentration 2.5): 1.360 log10(CFU/ml)
- log10(CFU/ml) after treatment, replicate 1 (non-growing UPEC CFT073 [3]; drug concentration 2.5): 6.954 log10(CFU/ml)
- log10(CFU/ml) after treatment, replicate 2 (non-growing UPEC CFT073 [3]; drug concentration 2.5): 5.903 log10(CFU/ml)
- log10(CFU/ml) after treatment, replicate 3 (non-growing UPEC CFT073 [3]; drug concentration 2.5): 5.114 log10(CFU/ml)
- killing, average Δlog10(CFU/ml) (non-growing UPEC CFT073 [3]; drug concentration 5): 1.695 log10(CFU/ml)
- log10(CFU/ml) after treatment, replicate 1 (non-growing UPEC CFT073 [3]; drug concentration 5): 6.146 log10(CFU/ml)
- log10(CFU/ml) after treatment, replicate 2 (non-growing UPEC CFT073 [3]; drug concentration 5): 5.778 log10(CFU/ml)
- log10(CFU/ml) after treatment, replicate 3 (non-growing UPEC CFT073 [3]; drug concentration 5): 5.041 log10(CFU/ml)
- killing, average Δlog10(CFU/ml) (non-growing UPEC CFT073 [3]; drug concentration 10): 2.758 log10(CFU/ml)
- log10(CFU/ml) after treatment, replicate 1 (non-growing UPEC CFT073 [3]; drug concentration 10): 5.778 log10(CFU/ml)
- log10(CFU/ml) after treatment, replicate 2 (non-growing UPEC CFT073 [3]; drug concentration 10): =<4 log10(CFU/ml)
- log10(CFU/ml) after treatment, replicate 3 (non-growing UPEC CFT073 [3]; drug concentration 10): =<4 log10(CFU/ml)
